# Source: US9775844B2, “Heterocyclic compounds and uses thereof” (Infinity Pharmaceuticals, Inc., priority 2014, dated 2017)
# How the values were obtained:
# [1] = system: Myeloid Derived Suppressor Cell; experiment: Myeloid Derived Suppressor Cell differentiation assay; format: cell-based; details: MDSC differentiation assay
# 4T1 breast cancer = experiment: Orthotopic 4T1 breast cancer model; format: in vivo; details: Compound BB and/or PDL-1 inhibition
# [2] = system: M2 macrophage markers VEGF and ARG-1; experiment: M2 macrophage marker expression with or without PDL-1 antibody (FIG. 42)
# [3] = Oral exposure in the monkey; format: in vivo
# [4] = system: spleen T cell proliferation; experiment: Ex vivo T-cell proliferation assay with tumor-derived cells from treated mice; format: in vivo
# [5] = system: RANKL driven differentiation of osteoclasts from bone marrow macrophages; experiment: Osteoclast differentiation assay (TRAP staining); format: cell-based, mouse; details: FIG. 17
# Method: Bone Marrow Derived Macrophages as Osteoclast Progenitors: Long bones from young C57B6 mice were harvested and bone marrow was extruded by gentle lavage of the bone marrow cavities with a 28 gage needle. The cells were screened, and red blood cells were removed using red blood cell lysis buffer (Sigma). Bone marrow cells were differentiated to macrophages using 20 ng/ml mouse MCSF (RnD systems) for 3 days (RPMI and 20% FCS). The cell were washed with PBS, and lifted with Accutase for 10 minutes.
# Osteoclast Differentiation Assay: The bone marrow macrophage cells were plated at 150,000 cells per well in a 96 well plate in a MEM 10% FCS. […] Then 25 ng/ml mouse MCSF with or without mouse RANKL (100 ng/ml, RnD systems) was added for 6 days. Media changes (including drugs) were done at day 3 and day 5. The cells were then fixed and stained with the tartrate resistant acid phosphatase (TRAP) assay kit from Sigma according to the manufactures instructions. TRAP positive cells (osteoclasts and cells undergoing an osteoclastic differentiation) in a transect of the triplicate wells (at 20× […]) were manually counted by going through the widest part of each well.
# [6] = system: bone marrow cells differentiating into MDSCs; experiment: Myeloid Derived Suppressor Cell differentiation assay; format: cell-based; details: FIG. 24A/24B
# Method: A similar experiment was performed on bone marrow cells differentiating into MDSCs.
# LLC tumor brei = experiment: Lewis Lung Carcinoma (LLC tumor brei) model; format: in vivo, mouse; details: single agent, FIG. 25A/25B
# Method: Compound BB was tested in the Lewis Lung Carcinoma model, which is known in the art and briefly described hereinabove.
# LLC tumor brei model was prepared and injected subcutaneously into a mouse in the hind flank region. The tumor brei was prepared as follows. LL2-Luc tumor cells were grown in culture in DMEM+10% FBS. Cells were implanted @ 1×10^6 cells/100 uL SC in the flank of C57 Albino mice (male) When tumors reached 1000 mm3, tumors were harvested. Only the white, living tissue was harvested. Any material containing visable blood or necrotic area was isolated away from the tumor tissue. Tumor tissue was placed in a Dounce tissue homoginized with 5 mLs of warm DMEM (no FBS). About 1-2 grams of tumor tissue was collected, homogenized, pooled into 50 mL falcon tube, and cells were counted. Cells were spinned @ 12,000 RPM, and FBS was pooled off. Cells were resuspended to equal 1×10^7 cells/mL with sterile PBS. 100 uL of cells/mouse SC at the hind flank region were implanted. This process was repeated one more time before conducting brei tumor efficacy study.
# CT26 colon carcinoma = experiment: CT26 allograft model of mouse colon cancer; format: in vivo; details: FIG. 28
# Method: CT26 is an N-nitroso-N-methylurethane-(NNMU) induced, undifferentiated colon carcinoma cell line. It was cloned to generate the cell line designated CT26.WT […] number CRL-2638). 5-6 week old female, Balb/c mice (Jackson Labs) were implanted subcutaneously with 5×10^5 CT26 cells in 200 μl PBS. CT26 cells were cultured in DMEM supplemented with 10% FBS.
# pKa = format: physicochemical
# Source text: The phyiscochemical properties of Compound BB are drug-like, and suitable for use of the compound as a drug.
# [7] = system: Cytochrome P450 isoforms (all main CYPs); experiment: Cytochrome P450 inhibition; format: in vitro ADME; details: reversible inhibition, all Cyps; read-out: Rev Cyp Inhibition IC50
# Source text: (§1) These properties indicate the compound's suitability for in vivo administration.
# Cytochrome P450 isoforms = experiment: Cytochrome P450 inhibition; format: in vitro ADME
# Source text: as §1
# [8] = Metabolic stability (microsome stability assay); format: in vitro ADME
# Method: The stability of one or more subject compounds is determined according to standard procedures known in the art. For example, stability of one or more subject compounds is established by an in vitro assay. For example, an in vitro microsome stability assay is established that measures stability of one or more subject compounds when reacting with mouse, rat or human microsomes from liver. The microsome reaction with compounds is performed in 1.5 mL Eppendorf tube. Each tube contains 0.1 μL of 10.0 mg/mL NADPH; 75 μL of 20.0 mg/mL mouse, rat or human liver microsome; […] of 0.2 M phosphate buffer, and 425 μL of ddH2O. Negative control (without NADPH) tube contains 75 μL of 20.0 mg/mL mouse, rat or human liver microsome; […] of 0.2 M phosphate buffer, and 525 μL of ddH2O. The reaction is started by adding 1.0 μL of 10.0 mM tested compound. The reaction tubes are incubated at 37° C. 100 μL sample is collected into new Eppendorf tube containing 300 μL cold methanol at 0, 5, 10, 15, 30 and 60 minutes of reaction. Samples are centrifuged at 15,000 rpm to remove protein. Supernatant of centrifuged sample is transferred to new tube. Concentration of stable compound after reaction with microsome in the supernatant is measured by Liquid Chromatography/Mass Spectrometry (LC-MS).
# as §1
# GL261-Luc = GL261-Luc murine glioblastoma subcutaneous model; format: in vivo, mouse; details: 15 mg/kg QD, PO
# [9] = Expected oral half-life in humans (from animal data); details: human, based on rat, dog, monkey data
# Plasma protein binding = format: in vitro ADME; details: all species, read-out: PPB % free @ 1 uM
# [10] = Hepatocyte stability (Hep t1/2); format: in vitro ADME; details: hepatocytes, all species (incl rat); read-out: M, C, D, H Hep (t1/2, min)
# human hepatocytes = experiment: Human hep viability; format: cell-based; details: Hepatocyte
smiles,measurement,setting,value
C[C@H](NC(=O)c1c(N)nn2cccnc12)c1cc2cccc(C#Cc3cnn(C)c3)c2c(=O)n1-c1ccccc1 [Compound BB],ARG1,[1],suppresses
same,VEGF,[1],suppresses
same,total luciferase flux,4T1 breast cancer,reduced total luciferase flux
same,tumor growth,4T1 breast cancer,reduced tumor growth
same,M2 macrophage marker ARG-1,[2],reduced
same,M2 macrophage marker VEGF,[2],reduced
same,oral exposure,[3],high
same,inhibition of spleen T cell proliferation by cells isolated from tumors of treated mice,[4]; compared to tumor derived cells from vehicle treated mice,less inhibitory of spleen T cell proliferation
same,immune suppressive environment,[4]; ex vivo T-cell proliferation assay,reduces immune suppressive environment
same,RANKL driven differentiation of osteoclasts (TRAP positive cells),[5],prevents RANKL driven differentiation of osteoclasts
same,VEGF and ARG1 in MDSC differentiation assay,[6],suppressed
same,"tumor growth, Lewis Lung Carcinoma model",LLC tumor brei,single agent activity
same,MDSC expansion after cyclophosphamide treatment,CT26 colon carcinoma,decreased
same,pKa,pKa,no ionization from pH 3-10
same,IC50,[7],> 10 µM
same,CYP inhibition,Cytochrome P450 isoforms,does not substantially inhibit CYP
same,reversible inhibition of main Cytochrome P450 isoforms,Cytochrome P450 isoforms,low potential for reversible inhibition
same,Time dep Cyp Inhibition @ 10 uM,"Cytochrome P450 isoforms; time dependent, 10 uM",Neg
same,metabolic stability,[8],high metabolic stability
same,half-life at 20 µM,"[8]; liver microsomes, microsomes, all species (incl rat)",> 2 h
same,"total flux, GL-261 syngeneic glioma model",GL261-Luc,reduced the total flux
same,"tumor volume, GL-261 syngeneic glioma model",GL261-Luc,reduced tumor volume
same,half-life,[9],10 to 13 h
same,fraction unbound at 1 uM,Plasma protein binding,0.01 to 0.05
same,half-life,[10],> 240 min
same,IC50,human hepatocytes,10 to 25 µM
